The text below walks through data of ChEMBL document CHEMBL4325825, “Medicinal chemistry of acridine and its analogues” (Medchemcomm, 2018).

Where a SMILES comes first, the peptide text is derived from it. The star is where a group is joined. X1 = CCN(CC)CCCCC(C)Nc1c2ccccc2nc2c(C(=O)NCCCO/N=C/C(=O)*)cccc12

One test deals with Calf thymus DNA. In words: Binding affinity to calf thymus DNA. Particulars: Bos taurus. Type of test: nucleic-acid assay.
The subject of another test is DNA. Briefly: Binding affinity to DNA (unknown origin). Type of test: nucleic-acid assay.
The target in test [1] is Acetylcholinesterase (Homo sapiens, UniProt P22303). In words: Inhibition of AChE (unknown origin).
Acetylcholinesterase (Homo sapiens, UniProt P22303), sequence (P22303 whole entry): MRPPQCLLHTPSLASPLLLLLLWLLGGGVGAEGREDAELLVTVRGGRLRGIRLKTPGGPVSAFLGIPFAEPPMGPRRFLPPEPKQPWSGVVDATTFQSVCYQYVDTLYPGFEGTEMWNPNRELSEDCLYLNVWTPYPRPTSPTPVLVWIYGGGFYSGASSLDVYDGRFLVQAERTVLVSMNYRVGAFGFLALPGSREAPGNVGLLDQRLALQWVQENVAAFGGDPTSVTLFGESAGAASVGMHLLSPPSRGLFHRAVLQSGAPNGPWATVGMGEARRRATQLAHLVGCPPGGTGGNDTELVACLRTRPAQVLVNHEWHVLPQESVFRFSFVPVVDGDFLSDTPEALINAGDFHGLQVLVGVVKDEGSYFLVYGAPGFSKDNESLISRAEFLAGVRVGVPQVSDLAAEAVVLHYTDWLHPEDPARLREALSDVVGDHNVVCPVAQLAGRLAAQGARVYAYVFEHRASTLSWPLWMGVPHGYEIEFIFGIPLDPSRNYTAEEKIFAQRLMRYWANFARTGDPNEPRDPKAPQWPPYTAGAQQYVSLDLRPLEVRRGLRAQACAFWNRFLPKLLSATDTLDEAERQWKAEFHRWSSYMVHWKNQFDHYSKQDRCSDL
Another test has as its target Cholinesterase (Homo sapiens, UniProt P06276). Briefly: Inhibition of BuChE (unknown origin).
For test [2], the target named is Amyloid-beta precursor protein (Homo sapiens, UniProt P05067). Briefly: Inhibition of amyloid beta (1 to 40) (unknown origin) self aggregation.
Amyloid-beta precursor protein, sequence (P05067 whole entry): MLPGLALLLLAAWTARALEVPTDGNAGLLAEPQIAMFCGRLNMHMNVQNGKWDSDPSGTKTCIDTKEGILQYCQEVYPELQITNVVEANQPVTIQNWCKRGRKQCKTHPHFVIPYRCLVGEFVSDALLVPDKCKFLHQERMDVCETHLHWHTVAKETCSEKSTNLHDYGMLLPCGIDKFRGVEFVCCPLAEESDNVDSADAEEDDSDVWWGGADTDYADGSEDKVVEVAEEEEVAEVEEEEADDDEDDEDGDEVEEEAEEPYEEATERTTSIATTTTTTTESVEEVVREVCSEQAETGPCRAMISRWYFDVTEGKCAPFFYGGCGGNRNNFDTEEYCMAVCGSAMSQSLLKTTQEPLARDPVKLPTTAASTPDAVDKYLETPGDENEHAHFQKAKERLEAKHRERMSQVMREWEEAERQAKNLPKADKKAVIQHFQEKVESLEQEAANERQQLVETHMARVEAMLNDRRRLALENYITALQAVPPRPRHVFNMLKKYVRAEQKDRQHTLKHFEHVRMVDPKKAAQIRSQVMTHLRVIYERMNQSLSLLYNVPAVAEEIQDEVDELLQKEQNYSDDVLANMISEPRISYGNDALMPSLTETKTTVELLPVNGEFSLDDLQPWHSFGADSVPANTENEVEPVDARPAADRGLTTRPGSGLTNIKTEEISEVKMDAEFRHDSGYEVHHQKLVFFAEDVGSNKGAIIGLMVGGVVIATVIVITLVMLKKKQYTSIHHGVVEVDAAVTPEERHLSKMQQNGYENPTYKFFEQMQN
The target of test [3] is T1, Acetylcholinesterase (Mus musculus, UniProt P21836).
T1 sequence (P21836 whole entry): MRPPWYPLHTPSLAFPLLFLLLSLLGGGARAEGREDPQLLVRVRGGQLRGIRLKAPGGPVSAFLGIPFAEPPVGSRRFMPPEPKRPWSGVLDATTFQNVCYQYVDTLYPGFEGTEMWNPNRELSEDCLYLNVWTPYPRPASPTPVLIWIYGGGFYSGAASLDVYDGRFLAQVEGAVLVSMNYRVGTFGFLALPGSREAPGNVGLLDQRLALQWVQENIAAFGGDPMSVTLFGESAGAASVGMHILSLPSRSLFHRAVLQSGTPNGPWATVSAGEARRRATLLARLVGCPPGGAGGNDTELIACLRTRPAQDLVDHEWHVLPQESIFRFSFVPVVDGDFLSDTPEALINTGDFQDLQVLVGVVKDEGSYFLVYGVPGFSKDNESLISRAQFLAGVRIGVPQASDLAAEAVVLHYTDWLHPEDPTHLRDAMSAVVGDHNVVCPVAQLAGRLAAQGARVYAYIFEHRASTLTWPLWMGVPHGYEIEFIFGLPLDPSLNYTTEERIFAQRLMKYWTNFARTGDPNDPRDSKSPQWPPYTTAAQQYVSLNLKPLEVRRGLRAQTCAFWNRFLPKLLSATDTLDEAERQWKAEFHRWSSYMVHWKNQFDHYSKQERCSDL
Briefly: Inhibition of AChE in mouse brain. Type of test: tissue-based.

As a reminder, the IC50 is the concentration at which inhibition is half-maximal. Low readings indicate higher potency, high ones lower potency.

Cholinesterase, sequence (P06276 whole entry): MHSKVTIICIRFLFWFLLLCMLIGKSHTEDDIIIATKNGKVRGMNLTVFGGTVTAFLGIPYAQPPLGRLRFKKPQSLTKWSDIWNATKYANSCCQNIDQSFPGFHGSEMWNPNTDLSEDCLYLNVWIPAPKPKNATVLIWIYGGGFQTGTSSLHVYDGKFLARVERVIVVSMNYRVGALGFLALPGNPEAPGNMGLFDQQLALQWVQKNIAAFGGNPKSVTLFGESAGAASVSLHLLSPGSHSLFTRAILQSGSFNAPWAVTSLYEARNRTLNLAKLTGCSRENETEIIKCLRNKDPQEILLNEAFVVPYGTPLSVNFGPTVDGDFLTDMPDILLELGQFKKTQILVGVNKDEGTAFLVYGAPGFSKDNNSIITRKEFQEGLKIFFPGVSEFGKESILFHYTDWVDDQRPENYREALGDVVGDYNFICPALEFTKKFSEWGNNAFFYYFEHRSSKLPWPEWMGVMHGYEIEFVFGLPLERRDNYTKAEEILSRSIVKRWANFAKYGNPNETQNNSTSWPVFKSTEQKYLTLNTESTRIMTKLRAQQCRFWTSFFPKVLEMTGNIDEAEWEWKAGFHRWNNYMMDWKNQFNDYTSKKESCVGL

Regarding `CCOc1ccc2nc3c(I)c(N)ccc3c(NCCCNCCCNCCn3cnc4c(N)ncnc43)c2c1`, the K in the test on Calf thymus DNA was 10000 to 1e+06 M⁻¹.

In the test on DNA, `N#Cc1c(/N=C/c2c3ccccc3nc3ccccc23)sc2c1CCC2` gave a K of 1 ×10⁴ /M.

On to `CCOc1ccc2nc3cc(N)ccc3c(NCCCNCCCNCCn3cnc4c(N)ncnc43)c2c1`, for which the K with Calf thymus DNA fell in the range of 10000 to 1e+06 M⁻¹.

With `CCOC(=O)c1c(/N=C/c2c3ccccc3nc3ccccc23)sc2c1CCC2`, in the test with DNA, the K amounted to 1 ×10⁴ /M.

On to `COc1ccc2nc3cc(Cl)ccc3c(Nc3sc4c(c3C#N)CCC4)c2c1`, for which, in the test on DNA, the K was 1 ×10⁴ /M.

Consider `O=C(NCCCCCNc1c2c(nc3ccccc13)CCCC2)c1c2ccccc2nc2ccccc12`, for which the IC50 was found to be 0.0076 nM at Acetylcholinesterase [1] and 0.0017 nM on Cholinesterase.

With `CCN(CC)CCCCC(C)Nc1c2ccccc2nc2c(C(=O)NCCCO/N=C/C(=O)NCCCC[C@@H]3NC(=O)CNC(=O)[C@@H]4CCCN4C(=O)[C@H](CCCCN)NC(=O)[C@@H]4CCCN4C(=O)[C@H](CCCCN)NC(=O)CNC(=O)[C@@H]4CCCN4C(=O)[C@H](CCCCN)NC(=O)[C@@H]4CCCN4C3=O)cccc12` (stereo partly specified) (cyclo(GKPKPGK(X1)PKP)), half-maximal inhibition in test [2] (IC50) was put at 2000 nM.

Take `Fc1ccc(N2CCN(c3c4ccccc4nc4c(Cl)cccc34)CC2)cc1`: the IC50 against Acetylcholinesterase [3] amounted to 330 nM.

For the compound `Cc1cc(C)c(S(=O)(=O)Nc2ccc(C3C4=C(CC(C)(C)CC4=O)N(c4ccc(Br)cc4)C4=C3C(=O)CC(C)(C)C4)cc2)c(C)c1`, at Acetylcholinesterase [1], the IC50 was 140 nM.

For `NC(=O)c1c(/N=C/c2c3ccccc3nc3ccccc23)sc2c1CCC2`, the K with DNA was found to be 1 ×10⁴ /M.

In the case of `O=C(/C=C/c1ccc([N+](=O)[O-])cc1)NCCCCCCNc1c2c(nc3ccccc13)CCCC2`, the half-inhibitory concentration (IC50) against Acetylcholinesterase [1] came out at 2.7 nM; against Cholinesterase, 6.5 nM.

In turn, `COc1ccc2c(NCCCNCCCNCCn3cnc4c(N)nc(N)nc43)c3cc(Cl)ccc3nc2c1` showed a K with Calf thymus DNA of 10000 to 1e+06 M⁻¹.

With `COc1ccc2nc3cc(Cl)ccc3c(NCCCNCCCNCCn3cnc4c(N)ncnc43)c2c1`, in the test on Calf thymus DNA, the K lay within 10000 to 1e+06 M⁻¹.

For the compound `COc1cc2nc3cc([N+](=O)[O-])ccc3c(NCCCNCCCNCCn3cnc4c(N)ncnc43)c2cc1OC`, in the test with Calf thymus DNA, the K fell in the range of 10000 to 1e+06 M⁻¹.
